Measurements: PubChem BioAssay AID435015 (The Scripps Research Institute Molecular Screening Center, 2010)
Activity calls are given as the source filed them. How the calls were made is not given here.

Test system: Vero E6 cytotoxicity, luminescence viability
Assay: PubChem AID 435015
Conditions: at 20 µM; stronger effect = higher value

`CC(C)(C)NC(=O)C(c1cccnc1)N(C(=O)c1ccco1)c1ccc(C(C)(C)C)cc1` (stereo unspecified) was tested, and the inhibition was 23% (inactive).
